Results as given in the supplement of paper PMC10627819.

How the values were obtained:
B. subtilis 168 [1] = assay: fitness (endpoint OD595 vs no drug) (fraction); higher = more growth
How it was run: (§1)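 Bacterial fitness was scored as optical density at the stationary-phase transition relative to the robust mean of no-drug control wells. Scores are capped at 1. The growth data were OD595 readings every 30 min for 14 h at 37 °C, background-subtracted against the first reading, from 384-well plates inoculated at OD595 0.01 in TSB, LB Lennox or CY.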

S. aureus DSM 20231 [2] = assay: as above
How it was run: as §1

S. pneumoniae D39V [3] = assay: as above
How it was run: as §1

S. aureus Newman [4] = assay: as above
How it was run: as §1

B. subtilis 168 [5] = assay: Bliss interaction score (quartile over a dose matrix) (fitness difference); higher = more antagonism (negative = synergy)
How it was run: (§2)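 Each plate was normalised to the robust mean of its own no-drug wells, using OD595 at entry into stationary phase, with values capped at 1. This normalised growth is the fitness value. The Bliss score is the difference between observed and product-expected fitness, with single-drug fitness inferred from the combination data and quartiles taken over technical, biological and donor/recipient replicates.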

S. aureus DSM 20231 [6] = assay: as above
How it was run: as §2

S. pneumoniae D39V [7] = assay: as above
How it was run: as §2

S. aureus Newman [8] = assay: as above
How it was run: as §2
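Wherever Bliss interaction score (quartile over a dose matrix) is given: first quartile when negative (synergy) and third quartile when positive (antagonism).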

Cc1ncc([N+](=O)[O-])n1CCO [Metronidazole] + CN1C2=CC=CC=C2N=C3C1=CC=CC3=O [Pyocyanin]
Conditions	fitness
B. subtilis 168 [1], first compound 0.625 µg/mL, partner 1.25 µg/mL	0.886
B. subtilis 168 [1], first compound 0.625 µg/mL, partner 2.5 µg/mL	0.867
B. subtilis 168 [1], first compound 0.625 µg/mL, partner 5 µg/mL	0.75
B. subtilis 168 [1], first compound 1.25 µg/mL, partner 1.25 µg/mL	0.884
B. subtilis 168 [1], first compound 1.25 µg/mL, partner 2.5 µg/mL	0.899
B. subtilis 168 [1], first compound 1.25 µg/mL, partner 5 µg/mL	0.743
B. subtilis 168 [1], first compound 2.5 µg/mL, partner 1.25 µg/mL	0.884
B. subtilis 168 [1], first compound 2.5 µg/mL, partner 2.5 µg/mL	0.896
B. subtilis 168 [1], first compound 2.5 µg/mL, partner 5 µg/mL	0.719
S. aureus DSM 20231 [2], first compound 0.625 µg/mL, partner 1.25 µg/mL	0.948
S. aureus DSM 20231 [2], first compound 0.625 µg/mL, partner 2.5 µg/mL	0.916
S. aureus DSM 20231 [2], first compound 0.625 µg/mL, partner 5 µg/mL	0.621
S. aureus DSM 20231 [2], first compound 1.25 µg/mL, partner 1.25 µg/mL	0.996
S. aureus DSM 20231 [2], first compound 1.25 µg/mL, partner 2.5 µg/mL	0.97
S. aureus DSM 20231 [2], first compound 1.25 µg/mL, partner 5 µg/mL	0.645
S. aureus DSM 20231 [2], first compound 2.5 µg/mL, partner 1.25 µg/mL	≥ 1
S. aureus DSM 20231 [2], first compound 2.5 µg/mL, partner 2.5 µg/mL	0.961
S. aureus DSM 20231 [2], first compound 2.5 µg/mL, partner 5 µg/mL	0.686
S. aureus Newman [4], first compound 0.625 µg/mL, partner 1.25 µg/mL	0.881
S. aureus Newman [4], first compound 0.625 µg/mL, partner 2.5 µg/mL	0.831
S. aureus Newman [4], first compound 1.25 µg/mL, partner 1.25 µg/mL	0.905
S. aureus Newman [4], first compound 1.25 µg/mL, partner 2.5 µg/mL	0.834
S. aureus Newman [4], first compound 2.5 µg/mL, partner 2.5 µg/mL	0.802
S. aureus Newman [4], first compound 2.5 µg/mL, partner 5 µg/mL	0.258
S. pneumoniae D39V [3], first compound 1.073 µg/mL, partner 0.325 µg/mL	≥ 1
S. pneumoniae D39V [3], first compound 1.073 µg/mL, partner 0.65 µg/mL	≥ 1
S. pneumoniae D39V [3], first compound 1.073 µg/mL, partner 1.3 µg/mL	0.795
S. pneumoniae D39V [3], first compound 2.145 µg/mL, partner 0.325 µg/mL	0.958
S. pneumoniae D39V [3], first compound 2.145 µg/mL, partner 0.65 µg/mL	0.98
S. pneumoniae D39V [3], first compound 2.145 µg/mL, partner 1.3 µg/mL	0.731
S. pneumoniae D39V [3], first compound 4.29 µg/mL, partner 0.325 µg/mL	0.98
S. pneumoniae D39V [3], first compound 4.29 µg/mL, partner 0.65 µg/mL	0.95
S. pneumoniae D39V [3], first compound 4.29 µg/mL, partner 1.3 µg/mL	0.815

fitness, one replicate
Conditions	first compound 0.781 µg/mL	first compound 1.25 µg/mL	first compound 1.562 µg/mL	first compound 2.5 µg/mL	first compound 3.124 µg/mL	first compound 5 µg/mL
S. aureus Newman [4], partner 1.25 µg/mL	0.808	–	0.785	–	0.771	–
S. aureus Newman [4], partner 2.5 µg/mL	0.795	–	0.768	–	0.78	–
S. aureus Newman [4], partner 5 µg/mL	0.376	–	0.425	–	0.418	–
S. pneumoniae D39V [3], partner 0.325 µg/mL	–	≥ 1	–	≥ 1	–	≥ 1
S. pneumoniae D39V [3], partner 0.65 µg/mL	–	≥ 1	–	≥ 1	–	≥ 1

Conditions	Bliss interaction score
B. subtilis 168 [5]	-0.0539
S. aureus DSM 20231 [6]	0.0663
S. aureus Newman [8]	0.0796
S. pneumoniae D39V [7]	0.0391

Cc1ncc([N+](=O)[O-])n1CCO [Metronidazole] + CN(N=O)C(=O)N[C@@H](C=O)[C@@H](O)[C@H](O)[C@H](O)CO [Streptozotocin]
fitness, one replicate
Conditions	partner 0.15 µg/mL	partner 0.3 µg/mL	partner 0.6 µg/mL	partner 1.2 µg/mL	partner 2.4 µg/mL	partner 4.8 µg/mL
B. subtilis 168 [1], first compound 0.625 µg/mL	≥ 1	≥ 1	≥ 1	–	–	–
B. subtilis 168 [1], first compound 1.25 µg/mL	0.91	≥ 1	≥ 1	–	–	–
B. subtilis 168 [1], first compound 2.5 µg/mL	0.956	0.941	0.976	–	–	–
S. aureus Newman [4], first compound 0.781 µg/mL	0.907	0.717	0.523	–	–	–
S. aureus Newman [4], first compound 1.562 µg/mL	0.875	0.722	0.519	–	–	–
S. aureus Newman [4], first compound 3.124 µg/mL	0.796	0.709	0.505	–	–	–
S. pneumoniae D39V [3], first compound 1.25 µg/mL	–	–	–	≥ 1	≥ 1	≥ 1
S. pneumoniae D39V [3], first compound 2.5 µg/mL	–	–	–	0.98	≥ 1	≥ 1
S. pneumoniae D39V [3], first compound 5 µg/mL	–	–	–	0.959	≥ 1	≥ 1

fitness
Conditions	first compound 0.625 µg/mL	first compound 1.073 µg/mL	first compound 1.25 µg/mL	first compound 2.145 µg/mL	first compound 2.5 µg/mL	first compound 4.29 µg/mL
S. aureus DSM 20231 [2], partner 0.15 µg/mL	0.876	–	0.888	–	0.905	–
S. aureus DSM 20231 [2], partner 0.3 µg/mL	0.791	–	0.752	–	0.831	–
S. aureus DSM 20231 [2], partner 0.6 µg/mL	0.683	–	0.701	–	0.734	–
S. aureus Newman [4], partner 0.15 µg/mL	0.838	–	0.833	–	0.816	–
S. aureus Newman [4], partner 0.3 µg/mL	0.725	–	0.742	–	0.731	–
S. aureus Newman [4], partner 0.6 µg/mL	0.579	–	0.568	–	0.591	–
S. pneumoniae D39V [3], partner 1.2 µg/mL	–	0.942	–	0.934	–	0.96
S. pneumoniae D39V [3], partner 2.4 µg/mL	–	0.961	–	0.904	–	0.743
S. pneumoniae D39V [3], partner 4.8 µg/mL	–	0.966	–	0.946	–	0.979

Conditions	Bliss interaction score
B. subtilis 168 [5]	-0.0488
S. aureus DSM 20231 [6]	-0.0474
S. aureus Newman [8]	0.0626
S. pneumoniae D39V [7]	0.0474
